Measured values from article PMC7828211, “LysM Receptor-Like Kinase LYK9 of Pisum Sativum L. May Regulate Plant Responses to Chitooligosaccharides Differing in Structure” (International Journal of Molecular Sciences, 2021).
Where two headings read alike, the source gives them in different places.

Legend:
PsLYK9-ECD = target: T1, PsLYK9-ECD (Lathyrus oleraceus, UniProt A0A9D5AD18); assay: microscale thermophoresis; format: binding; settings: 50 mM Tris pH 7.4, 10 mM MgCl2, 150 mM NaCl, 0.05% Tween 20, 25 °C; 20 nM RED-tris-NTA labelled protein; read-out: Kd, μM (±SD)
T1 construct: gene KIW84_053210; corresponds to residues 31-235), GP67 signal in vector, 6xHis tag, Sf9 cells, predicted 23 kDa, about 35 kDa on blot; RED-tris-NTA labelled
T1 sequence (A0A9D5AD18 26-230): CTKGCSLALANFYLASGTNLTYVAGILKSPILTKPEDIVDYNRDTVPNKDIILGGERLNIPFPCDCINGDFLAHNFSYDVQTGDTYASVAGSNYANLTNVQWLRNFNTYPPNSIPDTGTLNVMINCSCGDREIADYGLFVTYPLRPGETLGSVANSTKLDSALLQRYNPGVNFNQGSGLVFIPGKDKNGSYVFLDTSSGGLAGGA
Description: microscale thermophoresis on PsLYK9-ECD

PsLYR4-ECD = target: T2, PsLYR4-ECD; assay: microscale thermophoresis; format: binding, Pisum sativum; settings: 50 mM Tris pH 7.4, 10 mM MgCl2, 150 mM NaCl, 0.05% Tween 20, 25 °C, 20 nM RED-tris-NTA labelled protein
T2 construct: gene LYR4; corresponds to residues 8-257), GP67 signal in vector, 6xHis tag, Sf9 cells, predicted 27 kDa, about 32 kDa on blot; RED-tris-NTA labelled
Description: microscale thermophoresis on PsLYR4-ECD

Compound	Kd (PsLYK9-ECD) [µM]	Kd (PsLYR4-ECD; read-out: Kd, μM (±SD)) [µM]	Kd (PsLYR4-ECD; read-out: Kd) [µM]
N[C@H]1[C@H](O[C@H]2[C@H](O)[C@@H](N)[C@H](O[C@H]3[C@H](O)[C@@H](N)[C@H](O[C@H]4[C@H](O)[C@@H](N)[C@H](O[C@H]5[C@H](O)[C@@H](N)C(O)O[C@@H]5CO)O[C@@H]4CO)O[C@@H]3CO)O[C@@H]2CO)O[C@H](CO)[C@@H](O)[C@@H]1O (stereo partly shown) [CO5-DA]	76 ± 25	45 ± 20	
N[C@H]1[C@H](O[C@H]2[C@H](O)[C@@H](N)[C@H](O[C@H]3[C@H](O)[C@@H](N)[C@H](O[C@H]4[C@H](O)[C@@H](N)[C@H](O[C@H]5[C@H](O)[C@@H](N)[C@H](O[C@H]6[C@H](O)[C@@H](N)[C@H](O[C@H]7[C@H](O)[C@@H](N)C(O)O[C@@H]7CO)O[C@@H]6CO)O[C@@H]5CO)O[C@@H]4CO)O[C@@H]3CO)O[C@@H]2CO)O[C@H](CO)[C@@H](O)[C@@H]1O (stereo partly shown) [CO7-DA]	31 ± 11	19 ± 13	
N[C@H]1[C@H](O[C@H]2[C@H](O)[C@@H](N)[C@H](O[C@H]3[C@H](O)[C@@H](N)[C@H](O[C@H]4[C@H](O)[C@@H](N)[C@H](O[C@H]5[C@H](O)[C@@H](N)[C@H](O[C@H]6[C@H](O)[C@@H](N)C(O)O[C@@H]6CO)O[C@@H]5CO)O[C@@H]4CO)O[C@@H]3CO)O[C@@H]2CO)O[C@H](CO)[C@@H](O)[C@@H]1O (stereo partly shown) [CO6-DA]	42 ± 23	22 ± 11	
CO8-DA	26 ± 15		8 ± 5

Next, values leading:

Kd (PsLYK9-ECD) [µM]	Kd (PsLYR4-ECD; read-out: Kd, μM (±SD)) [µM]	Kd (PsLYR4-ECD; read-out: Kd) [µM]	Compound
5 ± 1.9			CC(=O)N[C@H]1[C@H](O[C@H]2[C@H](O)[C@@H](NC(C)=O)[C@H](O[C@H]3[C@H](O)[C@@H](NC(C)=O)C(O)O[C@@H]3CO)O[C@@H]2CO)O[C@H](CO)[C@@H](O[C@@H]2O[C@H](CO)[C@@H](O[C@@H]3O[C@H](CO)[C@@H](O)[C@H](O)[C@H]3NC(C)=O)[C@H](O)[C@H]2NC(C)=O)[C@@H]1O (stereo partly shown) [CO5]
2.1 ± 0.6			CC(=O)N[C@H]1[C@H](O[C@H]2[C@H](O)[C@@H](NC(C)=O)C(O)O[C@@H]2CO)O[C@H](CO)[C@@H](O[C@@H]2O[C@H](CO)[C@@H](O[C@@H]3O[C@H](CO)[C@@H](O)[C@H](O)[C@H]3NC(C)=O)[C@H](O)[C@H]2NC(C)=O)[C@@H]1O (stereo partly shown) [CO4]
